One experiment has as its system ASPC1 cells. In words: Inhibition of KRas-mediated phosphorylation of ERK (Cisbio HTRF pERK), ASPC1 cells. It counts as cell-based. The note with it: Homo sapiens, ASPC1, 3 h, AsPC-1 cells; 3 hr compound incubation; Cisbio pERK HTRF. For orientation: Time-resolved FRET reads energy transfer from a long-lived donor to a nearby acceptor.
For another experiment, the target named is KRas G12D (Homo sapiens, UniProt P01116, G12D). In words: biochemical. The note with it: Binding to KRas (IC50 nM) G12D, TR-FRET displacement, KRas G12D.
KRas G12D, sequence (P01116 1-169 isoform P01116-2 G12D): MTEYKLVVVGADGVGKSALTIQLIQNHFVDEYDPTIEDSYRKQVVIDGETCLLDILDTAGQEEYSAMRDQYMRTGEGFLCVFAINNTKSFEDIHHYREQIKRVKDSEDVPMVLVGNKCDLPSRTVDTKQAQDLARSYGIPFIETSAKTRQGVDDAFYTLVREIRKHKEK
A further experiment addresses KRas G12C (Homo sapiens, UniProt P01116, G12C). The class given is binding. Conditions: for inhibition at 0.01 µM: single point, 10 nM compound, read-out: Binding to KRas (% inhibition at 10 nM) G12C; for IC50: TR-FRET displacement, read-out: Binding to KRas (IC50 nM) G12C.
Another experiment deals with KRas G12V (Homo sapiens, UniProt P01116, G12V). Description: biochemical. The note with it: Binding to KRas (IC50 nM) G12V, TR-FRET displacement, KRas G12V.
KRas G12V, sequence (P01116 1-169 isoform P01116-2 G12V): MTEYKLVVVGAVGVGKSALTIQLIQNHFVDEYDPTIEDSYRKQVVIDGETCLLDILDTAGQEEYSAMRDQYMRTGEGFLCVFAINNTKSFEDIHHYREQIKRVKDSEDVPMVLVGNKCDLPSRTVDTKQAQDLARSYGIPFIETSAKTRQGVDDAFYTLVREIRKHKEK
Another experiment has as its system A549 cells. Description: Inhibition of KRas-mediated phosphorylation of ERK (Cisbio HTRF pERK), A549 cells. It counts as cell-based. The note with it: Homo sapiens, A549, 3 h, 3 hr compound incubation, Cisbio pERK HTRF.
The target of the next experiment is KRas G12A (Homo sapiens, UniProt P01116, G12A). It counts as binding. The note with it: for inhibition at 0.01 µM: single point, 10 nM compound, read-out: Binding to KRas (% inhibition at 10 nM) G12A; for IC50: TR-FRET displacement, read-out: Binding to KRas (IC50 nM) G12A.
KRas G12A, sequence (P01116 1-169 isoform P01116-2 G12A): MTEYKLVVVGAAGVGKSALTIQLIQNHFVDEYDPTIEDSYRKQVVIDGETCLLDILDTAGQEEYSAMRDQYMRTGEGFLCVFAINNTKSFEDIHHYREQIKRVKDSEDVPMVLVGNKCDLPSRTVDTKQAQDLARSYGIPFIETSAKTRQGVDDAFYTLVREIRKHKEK
A further experiment concerns H727 cells. In words: Inhibition of KRas-mediated phosphorylation of ERK (Cisbio HTRF pERK), H727 cells. It counts as cell-based. Conditions: Homo sapiens, NCI-H727, 3 h, 3 hr compound incubation, Cisbio pERK HTRF.
The next experiment concerns MKN1 cells. Description: Inhibition of KRas-mediated phosphorylation of ERK (Cisbio HTRF pERK), MKN1 cells. It counts as cell-based. The note with it: Homo sapiens, MKN-1, 3 hour compound incubation, Cisbio pERK HTRF. In short, it runs like this:
(§1)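 Seeding density of 6,000 cells per well was used, with cultures kept in RPMI/10% FBS from day 1.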

The test system of another experiment is H460 cells. In words: Inhibition of KRas-mediated phosphorylation of ERK (Cisbio HTRF pERK), H460 cells. It counts as cell-based. Conditions: Homo sapiens, NCI-H460, 3 h, 3 hr compound incubation, Cisbio pERK HTRF.
The target in the next experiment is KRas G13D (Homo sapiens, UniProt P01116, G13D). It counts as binding. Conditions: for inhibition at 0.01 µM: single point, 10 nM compound, read-out: Binding to KRas (% inhibition at 10 nM) G13D; for IC50: TR-FRET displacement, read-out: Binding to KRas (IC50 nM) G13D.
KRas G13D, sequence (P01116 1-169 isoform P01116-2 G13D): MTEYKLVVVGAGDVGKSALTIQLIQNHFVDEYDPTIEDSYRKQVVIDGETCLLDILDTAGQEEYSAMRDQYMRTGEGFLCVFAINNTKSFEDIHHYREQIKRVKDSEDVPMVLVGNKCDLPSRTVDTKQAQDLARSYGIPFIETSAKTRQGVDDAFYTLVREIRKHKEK
In a further experiment the target is KRas G12R (Homo sapiens, UniProt P01116, G12R). Description: biochemical. Conditions: Binding to KRas (IC50 nM) G12R, TR-FRET displacement, KRas G12R.
KRas G12R, sequence (P01116 1-169 isoform P01116-2 G12R): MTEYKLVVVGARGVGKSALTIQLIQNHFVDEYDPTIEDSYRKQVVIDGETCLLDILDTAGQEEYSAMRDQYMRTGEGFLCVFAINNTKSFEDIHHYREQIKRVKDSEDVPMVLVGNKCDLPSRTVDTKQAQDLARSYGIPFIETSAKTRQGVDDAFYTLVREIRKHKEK
In a further experiment the test system is HCT116 cells. In words: Inhibition of KRas-mediated phosphorylation of ERK (Cisbio HTRF pERK), HCT116 cells. It counts as cell-based. The note with it: Homo sapiens, HCT-116, 3 h, 3 hr compound incubation, Cisbio pERK HTRF.
A further experiment deals with KRas WT (Homo sapiens, UniProt P01116). Description: KRas binding assay (TR-FRET displacement), KRas WT. Conditions: for inhibition at 0.01 µM: single point, 10 nM compound; for IC50: TR-FRET displacement.
KRas WT, sequence (P01116 1-169 isoform P01116-2): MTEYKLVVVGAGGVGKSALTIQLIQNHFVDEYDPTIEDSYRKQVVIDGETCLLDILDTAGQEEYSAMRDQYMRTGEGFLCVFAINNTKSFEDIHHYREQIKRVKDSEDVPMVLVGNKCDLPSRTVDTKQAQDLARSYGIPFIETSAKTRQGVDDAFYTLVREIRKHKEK
In another experiment the target is KRas Q61H (Homo sapiens, UniProt P01116, Q61H). Description: KRas binding assay (TR-FRET displacement), KRas Q61H. Conditions: for inhibition at 0.01 µM: single point, 10 nM compound; for IC50: TR-FRET displacement.
KRas Q61H, sequence (P01116 1-169 isoform P01116-2 Q61H): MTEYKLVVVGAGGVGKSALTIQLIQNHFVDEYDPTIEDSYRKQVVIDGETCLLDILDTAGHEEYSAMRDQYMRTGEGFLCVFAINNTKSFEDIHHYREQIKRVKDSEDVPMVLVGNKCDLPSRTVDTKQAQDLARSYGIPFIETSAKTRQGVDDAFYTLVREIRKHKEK
Another experiment has as its target KRas G12S (Homo sapiens, UniProt P01116, G12S). It counts as binding. Conditions: for inhibition at 0.01 µM: single point, 10 nM compound, read-out: Binding to KRas (% inhibition at 10 nM) G12S; for IC50: TR-FRET displacement, read-out: Binding to KRas (IC50 nM) G12S.
Another experiment relates to PSN1 cells. Description: Inhibition of KRas-mediated phosphorylation of ERK (Cisbio HTRF pERK), PSN1 cells. The class given is cell-based. The note with it: Homo sapiens, PSN1, 3 h, 3 hour compound incubation, Cisbio pERK HTRF. The method, boiled down:
as §1

For another experiment, the system named is H358 cells. In words: Inhibition of KRas-mediated phosphorylation of ERK (Cisbio HTRF pERK), H358 cells. The class given is cell-based. Conditions: Homo sapiens, NCI-H358, 3 h, 3 hr compound incubation, Cisbio pERK HTRF.

This passage reports IC50 and inhibition results from patent US20250368649A1, “TETRAHYDROPYRIDOPYRIMIDINE PAN-KRAS INHIBITORS” (Mirati Therapeutics, Inc., priority 2022, published 2025).

KRas G12C, sequence (P01116 1-169 isoform P01116-2 G12C): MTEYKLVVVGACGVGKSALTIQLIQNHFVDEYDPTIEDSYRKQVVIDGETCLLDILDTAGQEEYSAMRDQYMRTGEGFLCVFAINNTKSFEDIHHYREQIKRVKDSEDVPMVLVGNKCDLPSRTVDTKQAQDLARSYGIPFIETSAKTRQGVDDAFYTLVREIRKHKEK
KRas G12S, sequence (P01116 1-169 isoform P01116-2 G12S): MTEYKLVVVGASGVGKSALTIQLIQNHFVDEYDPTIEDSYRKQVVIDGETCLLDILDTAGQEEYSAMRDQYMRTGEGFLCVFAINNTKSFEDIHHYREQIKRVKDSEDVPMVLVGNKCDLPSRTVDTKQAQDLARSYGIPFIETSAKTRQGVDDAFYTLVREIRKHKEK

For orientation: IC50 means the point on the concentration scale where inhibition reaches its midpoint. One may read the inhibition as the share of the control response that was lost under treatment. On to `CCc1c(F)ccc2cc(O)cc(N3CCc4c(nc(OC[C@@]56CCCN5C[C@H](F)C6)nc4N4CCCn5nc(C(=O)N6CCN(C)CC6)cc5C4)C3)c12` [Example 402, (5-(7-(8-ethyl-7-fluoro-3-hydroxynaphthalen-1-yl)-2-(((2R,7aS)-2-fluorohexahydro-1H-pyrrolizin-7a-yl)methoxy)-5,6,7,8-tetrahydropyrido[3,4-d]pyrimidin-4-yl)-5,6,7,8-tetrahydro-4H-pyrazolo[1,5-a][1,4]diazepin-2-yl)(4-methylpiperazin-1-yl)methanone], for which the IC50 with ASPC1 cells is 2 nM; at KRas G12D, less than 2 nM; at KRas G12V it was less than 2 nM; in the experiment on A549 cells it was 23 nM; in the experiment with H727 cells, 10 nM; with MKN1 cells, 5.7 nM. In addition, the IC50 with H460 cells was 24 nM; at KRas G12R it was less than 2 nM; in the experiment with HCT116 cells, 54 nM; with PSN1 cells, 3910 nM. Further, the inhibition at 0.01 µM on KRas G12C was found to be 100%; on KRas G12A, 98%; on KRas G13D, 98%; at KRas WT, 98%; on KRas Q61H, 98%; on KRas G12S, 99%.

For `CCc1c(F)ccc2cc(O)cc(N3CCc4c(nc(OC[C@@]56CCCN5C[C@H](F)C6)nc4N4CCCn5nc(C(=O)N(C)C)nc5C4)C3)c12` [Example 403, 8-(7-(8-ethyl-7-fluoro-3-hydroxynaphthalen-1-yl)-2-(((2R,7aS)-2-fluorohexahydro-1H-pyrrolizin-7a-yl)methoxy)-5,6,7,8-tetrahydropyrido[3,4-d]pyrimidin-4-yl)-N,N-dimethyl-6,7,8,9-tetrahydro-5H-[1,2,4]triazolo[1,5-a][1,4]diazepine-2-carboxamide], the IC50 in the experiment on ASPC1 cells was 2 nM; at KRas G12D, less than 2 nM; on KRas G12V, less than 2 nM; in the experiment on A549 cells, 3 nM; with H727 cells it was 7 nM; with MKN1 cells, 2 nM. Besides, the IC50 in the experiment with H460 cells was 18 nM; at KRas G12R it was less than 2 nM; in the experiment on HCT116 cells, 44 nM; in the experiment on PSN1 cells, 2940 nM. Besides, the inhibition at 0.01 µM on KRas G12C, at KRas G12A, on KRas G13D, at KRas WT, on KRas Q61H and at KRas G12S was 100% each time.

Regarding `C[C@@H]1C[C@@H]1c1c(Cl)cc2[nH]ncc2c1N1CCc2c(nc(OCC34CCCN3CCC4)nc2N2CCC[C@]3(C2)NC(=O)NC3=O)C1` [Example 449, (R)-7-(7-(6-chloro-5-((1S,2R)-2-methylcyclopropyl)-1H-indazol-4-yl)-2-((hexahydro-1H-pyrrolizin-7a-yl)methoxy)-5,6,7,8-tetrahydropyrido[3,4-d]pyrimidin-4-yl)-1,3,7-triazaspiro[4.5]decane-2,4-dione], the IC50 with ASPC1 cells was 5760 nM; at KRas G12D, 3 nM; on KRas G12C, less than 2 nM; on KRas G12V, less than 2 nM; at KRas G12A, less than 2 nM; with H727 cells it was 2690 nM. Moreover, the 50% inhibitory concentration (IC50) in the experiment on MKN1 cells is 53.7 nM; at KRas G13D it was less than 2 nM; on KRas G12R, less than 2 nM; at KRas WT it was less than 2 nM; at KRas Q61H, less than 2 nM; at KRas G12S, less than 2 nM. Also, the IC50 in the experiment on PSN1 cells is more than 10000 nM.

`CN(C)C(=O)c1cc2n(n1)CCCN(c1nc(OC[C@@]34CCCN3C[C@H](F)C4)nc3c1CCN(c1cccc4cccc(Cl)c14)C3)C2` [Example 483, 5-(7-(8-chloronaphthalen-1-yl)-2-(((2R,7aS)-2-fluorohexahydro-1H-pyrrolizin-7a-yl)methoxy)-5,6,7,8-tetrahydropyrido[3,4-d]pyrimidin-4-yl)-N,N-dimethyl-5,6,7,8-tetrahydro-4H-pyrazolo[1,5-a][1,4]diazepine-2-carboxamide]: the IC50 in the experiment with ASPC1 cells is 1160 nM; on KRas G12D, 9 nM; on KRas G12C it was 42 nM; at KRas G12V, 20 nM; at KRas G12A, 81 nM; in the experiment on H727 cells it was 1220 nM. For the same compound, the IC50 with MKN1 cells came to 1470 nM; on KRas G13D, 239 nM; on KRas G12R, 57 nM; at KRas WT, 150 nM; at KRas Q61H it was 238 nM; on KRas G12S, 46 nM. Besides, the IC50 with PSN1 cells was more than 10000 nM.

Turning to `C=C1CN2CC(=C)CC2(COc2nc3c(c(N4C[C@@H]5C[C@H](C4)[C@H](O)C5)n2)CCN(c2cc(O)cc4ccc(F)c(CC)c24)C3)C1` [Example 579, (1R,5R,6R)-3-(2-((2,6-dimethylenetetrahydro-1H-pyrrolizin-7a(5H)-yl)methoxy)-7-(8-ethyl-7-fluoro-3-hydroxynaphthalen-1-yl)-5,6,7,8-tetrahydropyrido[3,4-d]pyrimidin-4-yl)-3-azabicyclo[3.2.1]octan-6-ol], the IC50 in the experiment with ASPC1 cells worked out at 699 nM; at KRas G12D it was 7 nM; on KRas G12C, 4 nM; at KRas G12V, 2 nM; with A549 cells, 168 nM; with H727 cells, 513 nM. The concentration for half-maximal inhibition (IC50) in the experiment on MKN1 cells was 18.3 nM; in the experiment on H460 cells, 227 nM; in the experiment with HCT116 cells it was 968 nM; on KRas WT, 4 nM; in the experiment with H358 cells, 204 nM; on KRas G12S, 3 nM. In the experiment with PSN1 cells, this compound came in with an IC50 of more than 10000 nM.

For the compound `C=C1CN2CCCC2(COc2nc3c(c(N4CCC[C@@](C)(O)C4)n2)CCN(c2cc(O)cc4ccc(F)c(CC)c24)C3)C1` (stereo partly drawn) [Example 580, (3R)-1-(7-(8-ethyl-7-fluoro-3-hydroxynaphthalen-1-yl)-2-((2-methylenetetrahydro-1H-pyrrolizin-7a(5H)-yl)methoxy)-5,6,7,8-tetrahydropyrido[3,4-d]pyrimidin-4-yl)-3-methylpiperidin-3-ol], the IC50 is 16 nM in the experiment on ASPC1 cells; less than 2 nM on KRas G12D; less than 2 nM at KRas G12C; less than 2 nM at KRas G12V; 26 nM in the experiment with A549 cells; 71 nM in the experiment with H727 cells. Besides, the IC50 is 1 nM in the experiment on MKN1 cells; 17 nM in the experiment with H460 cells; 71 nM in the experiment with HCT116 cells; less than 2 nM on KRas WT; 14 nM in the experiment with H358 cells; less than 2 nM at KRas G12S. In the experiment on PSN1 cells, this compound displayed an IC50 of 405 nM.

On to `C=C1CN2CC(=C)CC2(COc2nc3c(c(N4CCC[C@@](C)(O)C4)n2)CCN(c2cc(O)cc4ccc(F)c(CC)c24)C3)C1` [Example 582, (R)-1-(2-((2,6-dimethylenetetrahydro-1H-pyrrolizin-7a(5H)-yl)methoxy)-7-(8-ethyl-7-fluoro-3-hydroxynaphthalen-1-yl)-5,6,7,8-tetrahydropyrido[3,4-d]pyrimidin-4-yl)-3-methylpiperidin-3-ol], for which the IC50 was 79 nM in the experiment on ASPC1 cells; 3 nM at KRas G12D; 2 nM at KRas G12C; less than 2 nM on KRas G12V; 86 nM in the experiment on A549 cells; 204 nM in the experiment on H727 cells. Further, the IC50 in the experiment on MKN1 cells is 3.1 nM; in the experiment with H460 cells, 63 nM; in the experiment with HCT116 cells it was 219 nM; at KRas WT, less than 2 nM; with H358 cells it was 40 nM; on KRas G12S, 2 nM. Also, in the experiment on PSN1 cells, the IC50 was determined as 2480 nM.
